Assay results reported in PubChem BioAssay (NCI).
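Tested at 5 concentrations; 48 h exposure; 96-well plates; endpoints linearly interpolated, else capped at highest concentration. TGI is the concentration that stops growth completely.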 Where a SMILES comes first, the peptide text is derived from it. The star is where a group is joined. Boc = CC(C)(C)OC(=O)*

Legend:
Test in all cases: NCI tumour cell line growth inhibition, 48 h
U251 CNS = test system: U251 CNS
SK-MEL-5 melanoma = test system: SK-MEL-5 melanoma
PC-3 prostate = test system: PC-3 prostate
M14 melanoma = test system: M14 melanoma
HCT-116 colon = test system: HCT-116 colon
A498 renal = test system: A498 renal
DU-145 prostate = test system: DU-145 prostate
A549 NSCLC = test system: A549 NSCLC
COLO 205 colon = test system: COLO 205 colon
UACC-62 melanoma = test system: UACC-62 melanoma
SR leukemia = test system: SR leukemia
SK-MEL-2 melanoma = test system: SK-MEL-2 melanoma
786-0 renal = test system: 786-0 renal
HCT-15 colon = test system: HCT-15 colon
SNB-19 CNS = test system: SNB-19 CNS
TK-10 renal = test system: TK-10 renal
MALME-3M melanoma = test system: MALME-3M melanoma
NCI-H522 lung = test system: NCI-H522 lung

Structure (SMILES)	TGI (U251 CNS) [µM]	TGI (SK-MEL-5 melanoma) [µM]	TGI (PC-3 prostate) [µM]	TGI (M14 melanoma) [µM]	TGI (HCT-116 colon) [µM]	TGI (A498 renal) [µM]	TGI (DU-145 prostate) [µM]	TGI (A549 NSCLC) [µM]	TGI (COLO 205 colon) [µM]	TGI (UACC-62 melanoma) [µM]	TGI (SR leukemia) [µM]	TGI (SK-MEL-2 melanoma) [µM]	TGI (786-0 renal) [µM]	TGI (HCT-15 colon) [µM]	TGI (SNB-19 CNS) [µM]	TGI (TK-10 renal) [µM]	TGI (MALME-3M melanoma) [µM]	TGI (NCI-H522 lung) [µM]
O=C(c1ccccc1)c1ccc(N2C(=O)/C(=C/c3cccc([N+](=O)[O-])c3)N=C2c2ccccc2)c(N2C(=O)/C(=C/c3cccc([N+](=O)[O-])c3)N=C2c2ccccc2)c1	> 100	18.9	> 100	> 100	> 100	> 100	> 100	> 100	11.1	> 100	> 100	> 100	> 100	> 100	> 100	> 100		
CNC(=S)N/N=C(\C)c1cc(OC)c(OC)cc1O	> 100	> 100	> 100	> 100	> 100	> 100	> 100	> 100	> 100	> 100	> 100	> 100	> 100	> 100	> 100	> 100	> 100	
COc1ccc(-c2c(C(C)=O)c(C)n(C3OC(COC(C)=O)C(OC(C)=O)C(OC(C)=O)C3OC(C)=O)c(=S)c2C#N)cc1 (stereo not drawn)	> 100	> 100	> 100	> 100	> 100	> 100	> 100	> 100	> 100	> 100	> 100	> 100	> 100	> 100	> 100	> 100	> 100	> 100
COc1cc(C2SC(N)=Nc3c2c(C)nn3C(=O)Cc2ccccc2)cc(OC)c1OC (stereo not drawn)		> 100	> 100	> 100	> 100	> 100	> 100	> 100	> 100	> 100	> 100		> 100	> 100	> 100	> 100		> 100
CC(C)C1=CC23CCC4C(C)(C(=O)O)CCCC4(C)C2CC1C1C(=O)N(c2ccc(N4C(=O)C5C6CC7C8(C)CCCC(C)(C(=O)O)C8CCC7(C=C6C(C)C)C5C4=O)cc2)C(=O)C13 (stereo not drawn)	14.4	19.2	14.1	15.8	11.8	24.8	16.6	43.3	10.8		15.9	26.7	> 100	27.2	18.8	29.9	27.9	17
COc1cc(S(=O)(=O)Nc2ccc(-c3csc(/N=C\c4ccccc4O)n3)cc2)ccc1Cl		> 100	> 100	> 100	> 100	> 100	> 100	> 100	> 100	> 100	95.2	78.5	> 100	> 100	> 100		> 100	> 100
C=C1CC2(C)CCC(OC(=O)C3(C)OC3C)C(C)(OC(C)=O)C2CC1=C(C)C (stereo not drawn)	> 100	> 100	> 100	> 100	> 100	> 100	> 100	> 100	> 100	> 100	> 100	> 100		> 100	> 100	> 100	> 100	> 100
N#Cc1nc(/C=C/c2cccs2)oc1N	> 100	> 100	> 100	> 100	> 100	> 100	> 100	> 100		> 100	74	> 100	> 100	> 100	> 100	> 100		
c1ccc(C2C3=C(c4ccccc4CC3)N3c4cc5nc6ccccc6nc5cc4NC34CCCCC24)cc1 (stereo not drawn)	> 10	> 10	> 10	> 10	> 10	> 10	> 10	> 10	> 10	> 10	2.05	> 10	> 10	> 10	> 10	> 10	> 10	
CC(=O)OCC(OC(C)=O)C(OC(C)=O)C(/C=N\Nc1nc2ccccc2c(=O)[nH]1)OC(C)=O (stereo not drawn)	> 100	> 100	> 100	> 100	> 100	> 100	> 100	> 100	> 100	> 100	> 100	> 100	> 100	> 100	> 100	> 100		
Clc1ccc(-c2cn3c(nc4ccccc43)c(/C=C/c3cccs3)n2)cc1	> 100	> 100	> 100	> 100	> 100	> 100	> 100	> 100	> 100	> 100	> 100	> 100	> 100	> 100	> 100	> 100	> 100	
CN1CCN(Cn2nc(-c3ccccc3)n(/N=C/c3ccc(-c4ccc(Cl)cc4Cl)o3)c2=S)CC1	17.5	68.9	22	39.1	14.8	58.1	21				5.04	44.1	33.9	21.2		29.7		> 100
O=C(Nn1c(-c2ccccc2)nc2ccccc2c1=O)c1ccc([N+](=O)[O-])cc1	> 100	> 100	> 100	> 100		> 100	> 100	> 100	> 100	> 100	> 100		> 100	> 100	> 100	> 100	> 100	> 100
CC(=O)OC12c3ccccc3C(c3ccccc31)C1C(=O)N(Nc3ccccc3)C(=O)C12 (stereo not drawn)	> 100	> 100	> 100	> 100	> 100	> 100	> 100	> 100	> 100		> 100		> 100	> 100	> 100	> 100	> 100	
O=c1cc(CN2CCCCC2)[nH]c2c1ccc1nc(CN3CCCCC3)cc(=O)n12	> 100	> 100	> 100	> 100	> 100	> 100	> 100	> 100	> 100	> 100	> 100	> 100	> 100	> 100	> 100	> 100		
CNC(=O)CNC(=O)C(NC(=O)CNC(=O)C1CCCN1C(=O)C(C)NC(=O)C(NC(=O)OC(C)(C)C)C(C)C)C(C)C (stereo not drawn) (Boc-VAPGVG-NHMe; configuration not given here)	> 100		> 100	> 100	> 100	> 100	> 100		> 100	> 100	> 100	> 100	> 100	> 100	> 100	> 100	> 100	> 100
CC(=O)OCc1cc(OC(C)=O)c2cc3c(OC(C)=O)cccc3c(OC(C)=O)c2c1	32	23.7	38.6	55.7	> 100	27.3	43.5	30.9	> 100	38.7	> 100		34.4	31.1	50.6	33	4.08	
O=C(O)CSc1nc2ccccc2[nH]1	> 100		> 100	> 100	> 100	> 100	> 100	> 100		> 100	> 100	> 100	> 100	> 100	> 100	> 100	> 100	> 100
CCOC(=O)C(=NN(C)c1ncccc1N)C(=O)OCC	> 100	> 100	> 100	> 100	65.4	> 100	> 100	> 100	29	> 100	> 100	> 100	87.2	> 100	> 100	> 100	59.7	
COc1cc(C)cc(C(=O)OCc2ccccc2)c1C1=C(Cl)C(=O)C(Cl)=CC1=O	> 10	> 10	> 10	> 10	> 10		> 10	> 10	> 10	> 10	> 7.85	> 10	> 10	> 10	> 10	> 10	> 10	3.69
C=CC(Br)(CBr)CCC1OC1(C)C (stereo not drawn)	30.7	27.3	30.9	29	30.7	40.2	59.8	64.3	36.2		86.8	30.6	29.6		32.7	36.2	38.2	34.1
CNc1cccc(-c2cc(=O)c3cc4c(cc3[nH]2)OCO4)c1	> 49.5	6.92	> 100	> 100	> 100		8.87	> 91.8	0.63	> 100	> 100	> 44.5	> 100	3.66	> 100	77.5	> 100	0.443
CCOC(=O)c1ccc(N(C)Cc2cnc3nc(N)nc(N)c3n2)cc1	> 100	> 100	88.4	97.2	> 100	59.8	> 100		> 100	33.8	> 100	80	> 100	> 100	> 100	35.4	51.1	
CC1(C)OC[C@@H]([C@H](C=O)OCc2ccccc2)O1	> 100	> 100	> 100	> 100	> 100	> 100	> 100	> 100	> 100	> 100	> 100	> 100	> 100	> 100	> 100	> 100	> 100	
CCCCN(CCCC)C1(c2cc3ccccc3s2)CCCCC1	31.4	40.7	34.1	30.6	23.7	34.1	30	34	31.3	31.1	33.5	34.5	27.3	30.8	33.8	31.2		25.6
CO[C@@H]1C[C@H]2[C@@H]3CC[C@H]([C@@H](C)COC(C)=O)[C@@]3(C)CC[C@@H]2[C@@]2(C)CC[C@H]3C[C@]312	25.8	15.2	29.6	38	22.2	35.6	27.8	37.3	20.2		26.5		30.8	27	31.7		29.4	33.2
Nc1ccc(-c2nnc(-c3c(Cl)c(Cl)c(Cl)c(Cl)c3-c3nc4ccc(C(=O)c5ccccc5)cc4[nH]3)o2)cc1	47.4	26.4	49.9	34.8	56.9	63.2	90.5	> 100	50.2		28.2	88.3	36.1	61	67.4	77.6	> 100	47.9
